Results published in patent US20120065066A1, “NOVEL HERBICIDES” (SYNGENTA CROP PROTECTION LLC, priority 2009, published 2012).

Legend:
Type in all cases: in vivo
Settings in all cases: 312 h, evaluated after 13 days, 100=total damage to plant, 0=no damage to plant
Avena fatua (AVEFA) [1] = assay: Test Example B, post-emergence herbicidal test
Description: (§1) Seeds of a variety of test species were sown in standard soil in pots. After cultivation for one day (pre-emergence) or after 8 days cultivation (post-emergence) under controlled conditions in a glasshouse (at 24/16° C., day/night; 14 hours light; 65% humidity), the plants were sprayed with an aqueous spray solution derived from the formulation of the technical active ingredient in acetone/water (50:50) solution containing 0.5% Tween 20 (polyoxyethelyene sorbitan monolaurate, CAS RN 9005-64-5). The test plants were then grown in a glasshouse under controlled conditions in a glasshouse (at 24/16° C., day/night; 14 hours light; 65% humidity) and watered twice daily. After 13 days for pre and post-emergence, the test was evaluated (100=total damage to plant; 0=no damage to plant). Test Plants: Setaria faberi (SETFA), Alopecurus myosuroides (ALOMY), Echinochloa crus-galli (ECHCG), and Avena fatua (AVEFA).

[2] = system: Alopecurus myosuroides (ALOMY); assay: Test Example B, post-emergence herbicidal test
Description: as §1

[3] = system: Echinochloa crus-galli (ECHCG); assay: Test Example B, post-emergence herbicidal test
Description: as §1

Avena fatua (AVEFA) [4] = assay: Test Example B, pre-emergence herbicidal test
Description: as §1

[5] = system: Alopecurus myosuroides (ALOMY); assay: Test Example B, pre-emergence herbicidal test
Description: as §1

[6] = system: Echinochloa crus-galli (ECHCG); assay: Test Example B, pre-emergence herbicidal test
Description: as §1

Row | SMILES | pest or weed control at 250 g/ha (Avena fatua (AVEFA) [1]) | pest or weed control at 250 g/ha [2] | pest or weed control at 250 g/ha [3] | pest or weed control at 250 g/ha (Avena fatua (AVEFA) [4]) | pest or weed control at 250 g/ha [5] | pest or weed control at 250 g/ha [6]
1 | CCc1ccc(-c2ccc(Cl)cc2)cc1C1=C(O)[C@H]2[C@H]3CC[C@H](C3)[C@H]2C1=O (racemic) [Compound T1, rac-(3aR,4R,7S,7aS)-2-(4′-chloro-4-ethylbiphenyl-3-yl)hexahydro-4,7-methanoindene-1,3-dione] | 100% | 90% | 100% | 100% | 70% | 100%
2 | CCc1ccc(-c2ccc(Cl)cc2)cc1C1=C(O)[C@H]2[C@H]3CC[C@H](CC3)[C@H]2C1=O (racemic) [Compound T3, rac-(3aR,7aS)-2-(4′-chloro-4-ethylbiphenyl-3-yl)hexahydro-4,7-ethanoindene-1,3-dione] | 90% | 100% | 100% | 70% | 70% | 100%
3 | CCc1ccc(-c2ccc(Cl)cc2)cc1C1=C(O)[C@@H]2[C@H](C1=O)[C@@H]1C=C[C@H]2CC1 (racemic) [Compound T6, rac-(3aR,4S,7R,7aS)-2-(4′-chloro-4-ethylbiphenyl-3-yl)-3a,4,7,7a-tetrahydro-4,7-ethanoindene-1,3-dione] | 60% | 70% | 100% | 40% | 60% | 100%
4 | CCc1ccc(-c2ccc(Cl)cc2F)cc1C1=C(O)[C@H]2[C@H]3CC[C@H](CC3)[C@H]2C1=O (racemic) [Compound T10, rac-(3aR,7aS)-2-(4′-chloro-4-ethyl-2′-fluorobiphenyl-3-yl)hexahydro-4,7-ethanoindene-1,3-dione] | 0% | 0% | 90% | 0% | 0% | 90%
5 | CCc1ccc(-c2ccc(Cl)cc2F)cc1C1=C(O)[C@H]2[C@H]3CC[C@H](C3)[C@H]2C1=O (racemic) [Compound T28, rac-(3aR,4R,7S,7aS)-2-(4′-chloro-4-ethyl-2′-fluorobiphenyl-3-yl)-hexahydro-4,7-methanoindene-1,3-dione] | 10% | 30% | 90% | 90% | 60% | 100%
6 | Cc1ccc(-c2ccc(Cl)cc2)cc1C1=C(O)[C@H]2[C@H]3CC[C@H](C3)[C@H]2C1=O [Compound T2] | 60% | 40% | 100% | 80% | 30% | 100%
7 | Cc1ccc(-c2ccc(Cl)cc2)cc1C1=C(O)[C@H]2[C@H]3CC[C@H](CC3)[C@H]2C1=O [Compound T4] | 80% | 70% | 100% | 70% | 50% | 100%
8 | CCc1ccc(-c2ccc(Cl)cc2Cl)cc1C1=C(O)[C@H]2[C@H]3CC[C@H](CC3)[C@H]2C1=O [Compound T11] | 100% | 90% | 100% | 0% | 0% | 60%
9 | CCc1ccc(-c2ccc(Cl)cc2C)cc1C1=C(O)[C@H]2[C@H]3CC[C@H](CC3)[C@H]2C1=O [Compound T12] | 40% | 90% | 100% | 20% | 60% | 100%
10 | CCc1ccc(-c2ccc(Cl)c(Cl)c2)cc1C1=C(O)[C@H]2[C@H]3CC[C@H](CC3)[C@H]2C1=O [Compound T13] | 60% | 60% | 100% | 0% | 20% | 90%
11 | CCc1ccc(-c2ccc(Cl)c(OC)c2)cc1C1=C(O)[C@H]2[C@H]3CC[C@H](CC3)[C@H]2C1=O [Compound T14] | 0% | 0% | 90% | 70% | 80% | 100%
12 | CCc1ccc(-c2cc(Cl)sc2Cl)cc1C1=C(O)[C@H]2[C@H]3CC[C@H](CC3)[C@H]2C1=O [Compound T15] | 30% | 40% | 80% | 0% | 0% | 30%
13 | CCc1ccc(-c2ccc(Cl)c(C(F)(F)F)c2)cc1C1=C(O)[C@H]2[C@H]3CC[C@H](CC3)[C@H]2C1=O [Compound T16] | 0% | 0% | 30% | 20% | 60% | 100%
14 | CCc1ccc(-c2ccc(Cl)s2)cc1C1=C(O)[C@H]2[C@H]3CC[C@H](CC3)[C@H]2C1=O [Compound T17] | 50% | 40% | 90% | 90% | 80% | 100%
15 | CCc1ccc(-c2ccc(Cl)c(F)c2)cc1C1=C(O)[C@H]2[C@H]3CC[C@H](CC3)[C@H]2C1=O [Compound T18] | 100% | 100% | 100% | 50% | 50% | 90%
16 | CCc1ccc(-c2c(F)cc(Cl)cc2F)cc1C1=C(O)[C@H]2[C@H]3CC[C@H](CC3)[C@H]2C1=O [Compound T20] | 100% | 100% | 100% | 100% | 100% | 100%
17 | CCc1ccc(-c2ccc(Cl)cc2Cl)cc1C1=C(O)[C@H]2[C@H]3CC[C@H](C3)[C@H]2C1=O [Compound T29] | 0% | 30% | 100% | 90% | 30% | 100%
18 | CCc1ccc(-c2ccc(Cl)cc2C)cc1C1=C(O)[C@H]2[C@H]3CC[C@H](C3)[C@H]2C1=O [Compound T30] | 0% | 0% | 90% | 30% | 40% | 100%
